Values of other authors, collected in US9918986B2, “Methods and compounds for preventing osteoarthritis” (UNIVERSITY COLLEGE CARDIFF CONSULTANTS LIMITED, priority 2013, dated 2018).

What was measured:
[1] = system: AMPA receptor; settings: cited from earlier work
[2] = system: Kainate receptor; settings: cited from earlier work
[3] = system: human RA FLS; settings: cited from earlier work
[4] = system: rodent arthritis; settings: oral administration, cited from earlier work
[5] = biological target: T1, IL-6 receptor (Homo sapiens, UniProt P08887); settings: RA patients; cited from earlier work
T1 construct: host or cells: RA patients (endogenous receptor)
T1 sequence (P08887 20-468): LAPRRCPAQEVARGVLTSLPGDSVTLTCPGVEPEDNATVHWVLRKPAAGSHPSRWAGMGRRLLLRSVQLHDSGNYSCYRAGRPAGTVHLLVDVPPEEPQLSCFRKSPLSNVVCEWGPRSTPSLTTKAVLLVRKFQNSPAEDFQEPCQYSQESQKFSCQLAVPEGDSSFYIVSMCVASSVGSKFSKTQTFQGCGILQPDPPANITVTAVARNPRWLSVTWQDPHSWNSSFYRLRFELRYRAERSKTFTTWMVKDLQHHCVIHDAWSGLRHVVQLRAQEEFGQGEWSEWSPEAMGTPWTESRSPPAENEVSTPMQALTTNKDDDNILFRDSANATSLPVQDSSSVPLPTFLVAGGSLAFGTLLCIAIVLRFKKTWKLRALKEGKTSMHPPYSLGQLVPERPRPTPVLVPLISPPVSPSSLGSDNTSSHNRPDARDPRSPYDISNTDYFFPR

Row | Compound | AMPA receptor antagonist [1] | Kainate receptor antagonist [2] | further results
1 | NCCCNCCCCNCCCNC(=O)Cc1cccc2ccccc12 [1-NAS, 1-naphthyl acetyl sperm me] | Yes | No | –
2 | Cc1cn(C[C@H](N)C(=O)O)c(=O)n(Cc2cc(-c3ccccc3)sc2C(=O)O)c1=O [ACET] | No | Yes | –
3 | COc1cc2c(cc1OC)C(c1ccc(N)cc1)=NNC(=O)C2 [CFM-2, 1-(4′-Aminophenyl)-3,5-dihydro-7,8-dimethoxy-4H-2,3-benzodiazepin-4-one] | Yes | No | MMP-2 expression by FLS [3]: did not affect
4 | N#Cc1cc2c(cc1[N+](=O)[O-])=NC(=O)C(=O)N=2 [CNQX, 6-cyano-7-nitroquinoxaline-2,3-dione] | Yes | Yes | –
5 | NC(CCCP(=O)(O)O)C(=O)O [D-AP5] | – | – | MMP-2 expression by FLS [3]: did not affect
6 | O=C1N=c2cc([N+](=O)[O-])c([N+](=O)[O-])cc2=NC1=O [DNQX, 6,7-dinitroquinoxaline-2,3-dione] | Yes | Yes | –
7 | CC1=NN=C(c2ccc(N)cc2)c2cc3c(cc2C1)OCO3 [GYKI52466, 4-(8-Methyl-9H-1,3-dioxolo[4,5-h][2-,3]benzodiazepin-5-yl)-benzenamine] | Yes | Yes | body weight loss [4]: attenuated; hyperalgesia [4]: attenuated; primary oedema on the right paw [4]: no effect; secondary, generalized inflammation-induced swelling of the left paw ([4]; second phase of chronic disease): no effect
8 | O=C(O)c1cc(=O)c2ccccc2[nH]1 [Kynurenic acid] | Yes | Yes | –
9 | CCNC(=O)CC[C@H](N)C(=O)O [L-Theanine, gamma-glutamylethylamide or 5-N-ethyl-glutamine] | Yes | Yes | –
10 | C[C@]12N[C@H](Cc3ccccc31)c1ccccc12 [MK801] | – | – | proMMP-2 release ([3]; RA FLS): significantly increased
11 | O=C1Nc2c(cc([N+](=O)[O-])c3c2CCCC3)C1=NO [NS-102] | Weak | Yes | –
12 | O=C(O)[C@@H]1C[C@H]2C[C@@H](CCc3nn[nH]n3)CC[C@H]2CN1 [Tezampanel] | Yes | Yes | –
13 | tocilizumab: anti-IL-6 receptor inhibitor | – | – | synovitis and radiographic changes [5]: significantly improves
